Where two headings read alike, the source gives them in different places.
Assays:
[1] = test system: primary human subcutaneous preadipocytes; experiment: Human adipocyte differentiation (oil red-O staining); assay type: cell-based; details: human adipocyte differentiation in presence of insulin and dexamethasone
Description: Assays are carried out on primary human subcutaneous preadipocytes. Preadipocytes are inoculated at high density in preadipocyte medium (DME/F-10, 1:1, (v/v) containing 10% fetal calf serum) and maintained overnight for attachment. Drug treatment is initiated the second day by changing to serum free medium containing test compounds. The basal medium, which is used as the negative control, contains DME/F-10, biotin (33 μM), pantothenate (17 μM), insulin (100 nM), and dexamethasone (1 μM) and BRL 49653 is included as a positive control. The culture is maintained for 14 days with the compound treatment during the first five days. At the end of the culture, cells are fixed in 5% formalin and stained with oil red-O dye. The dye is extracted by isopropanol and quantitated by measure the optical density at 500 nm. EC50 values found in Table 1 reflect the human adipocyte differentiation of the compound in presence of insulin and dexamethasone.

[2] = biological target: T1, LBD (ligand binding domain) of the PPAR-γ receptor (Homo sapiens, UniProt P37231); experiment: Binding to PPAR-γ receptor (inhibition of 3H-PPAR-γ ligand binding to LBD); details: 8 nM 3H-PPAR ligand, 210 ng LBD/well, 2 hours
T1 sequence (P37231 238-503 limits assumed): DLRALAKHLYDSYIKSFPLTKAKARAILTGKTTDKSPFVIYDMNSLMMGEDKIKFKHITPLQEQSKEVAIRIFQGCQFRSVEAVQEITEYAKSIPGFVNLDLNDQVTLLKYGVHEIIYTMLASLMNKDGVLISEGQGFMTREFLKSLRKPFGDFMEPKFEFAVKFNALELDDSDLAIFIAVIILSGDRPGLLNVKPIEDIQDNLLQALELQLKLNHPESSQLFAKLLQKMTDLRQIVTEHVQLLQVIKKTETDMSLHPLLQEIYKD
Description: Binding to PPAR-γ Receptor Compounds are assayed for their ability to inhibit the binding of 3H-PPAR-γ ligand to the LBD (ligand binding domain) of the PPAR-γ receptor. Compounds are tested at 4 concentrations (1 μM to 1 nM) in triplicate. Compounds are incubated with H3-PPAR ligand (8 nM final concentration) and LBD (210 ng/assay well) in assay buffer (50 mM Tris pH8.0. 50 mM KCL, 2 mM EDTA, 0.3% CHAPS, 0.1 mg/ml BSA, 10 mM DTT) for 2 hours with gentle shaking. Non-specific binding is measured in the presence of 10 μM excess cold competitor. Bound ligand is separated using gel filtration plates (Edge Biosystems 31909) and captured on 96 well Wallac MicroBeta plates (1450-5150 by centrifugation for 5 minutes at 2500 rpm. Radioactivity is measured in a Wallac Micro Beta counter. Table 2 gives the IC50 values of compounds 1 and 2.

Zucker Obese Rats = experiment: Blood glucose lowering in diabetic rats; assay type: in vivo, rat; details: oral gavage once daily
Description: [The source words this procedure for another organism and reports this organism under the same test.] Male Zucker lean rats, 24-28 weeks of age, are fed high fat chow (AIN-93-M formulation) for two weeks to elevate blood glucose. At blood glucose concentrations over 160 mg/dl, a three day pre-study baseline is established by measuring blood glucose daily (at 0700-0800 hrs) via tail vein blood extraction and measurement using a glucometer. Animals are segregated into groups of 5 based on weights and baseline glucose. Compounds are then administered to the animals at various concentrations (30 mg compound/kg body weight or 10 mg compound/kg body weight). The drugs were suspended in 0.5% carboxymethylcellulose (Sigma) in a total gavage volume of 250 μL. Animals are dosed for seven days, once daily in the morning after blood glucose and weight determination. At the end of the seven-day period, the animals are euthanized by exsanguination after isofluorane anesthesia.

[3] = 14 day culture, compound first five days, read-out: EC50 Differentiation
[4] = read-out: EC50 Inhibition of Differentiation
[5] = Treatment Day 0 (baseline), 30 or 10 mg/kg (dose not given)

SMILES	EC50 [1, 3]	EC50 [1, 4]	IC50 [2]	Blood Glucose (mg/dl ± SEM) (Zucker Obese Rats; [5])	Blood Glucose (mg/dl ± SEM) (Zucker Obese Rats; Treatment Day 1)	Blood Glucose (mg/dl ± SEM) (Zucker Obese Rats; Treatment Day 2)	Blood Glucose (mg/dl ± SEM) (Zucker Obese Rats; Treatment Day 3)	Blood Glucose (mg/dl ± SEM) (Zucker Obese Rats; Treatment Day 4)	Blood Glucose (mg/dl ± SEM) (Zucker Obese Rats; Treatment Day 5)	Blood Glucose (mg/dl ± SEM) (Zucker Obese Rats; Treatment Day 6)	Blood Glucose (mg/dl ± SEM) (Zucker Obese Rats; Treatment Day 7)
CN(C(=O)c1ccc(C[C@H](NCc2ccccc2)C(=O)O)cc1)C1CCCC1Sc1ccccc1 (stereo partly drawn) [Compound 2, (2S)-3-{4-[N-methyl-N(2-phenylthiocyclopentyl)carbamoyl]phenyl}-2-[benzylamino]propanoic acid]	175 nM	> 10000 nM	3300 nM	133 ± 11 mg/dL	136 ± 5 mg/dL	104 ± 1 mg/dL	100 ± 9 mg/dL	93 ± 6 mg/dL	100 ± 4 mg/dL	101 ± 5 mg/dL	92 ± 6 mg/dL
CN(CCOc1ccc(CC2SC(=O)NC2=O)cc1)c1ccccn1 (stereo not drawn) [Rosiglitizone, reference compound]	100 nM	> 10000 nM									
O=C(NCCCc1ccccc1)c1ccc(C[C@H](NCc2ccccc2)C(=O)O)cc1 [Compound 1, (2S)-2-[benzylamino]-3-{4-[N-(3-phenylpropyl)carbamoyl]phenyl}propanoic acid]	150 nM	> 10000 nM	1700 nM	133 ± 11 mg/dL	134 ± 11 mg/dL	105 ± 7 mg/dL	105 ± 4 mg/dL	97 ± 16 mg/dL	113 ± 3 mg/dL	105 ± 6 mg/dL	104 ± 8 mg/dL
